Measured values as given in patent US20230105667A1, “MESENCHYMAL STROMAL CELLS AND EXTRACELLULAR VESICLES FOR TREATING VIRAL INFECTIONS, INFLAMMATION, AND TISSUE FIBROSIS” (EXOSTEM BIOTEC LTD., priority 2020, published 2023).

Test system: Immortalized human bronchial epithelial (HBE) cells
Type: cell-based
Settings: HBE cells with S1 peptide; EVs, drugs alone or combined

Compound	reduction in inflammation (TNFα expression)
CN(C)C(=N)N=C(N)N [metformin]	modest reduction in inflammation
C=C(C)[C@@H]1CCC(C)=C[C@H]1c1c(O)cc(CCCCC)cc1O [CBD, cannabidiol]	modest reduction in inflammation
